Experimental data taken from patent publication US8598374B2, “GPR120 receptor agonists and uses thereof” (Metabolex, Inc, priority 2008, dated 2013).

Target: T1, human GPR120 (Homo sapiens, UniProt Q5NUL3)
T1 construct: Flag (DYKDDDDK) (N); host or cells: HEK293 cells co-expressing Gqi5
T1 sequence (Q5NUL3 1-361): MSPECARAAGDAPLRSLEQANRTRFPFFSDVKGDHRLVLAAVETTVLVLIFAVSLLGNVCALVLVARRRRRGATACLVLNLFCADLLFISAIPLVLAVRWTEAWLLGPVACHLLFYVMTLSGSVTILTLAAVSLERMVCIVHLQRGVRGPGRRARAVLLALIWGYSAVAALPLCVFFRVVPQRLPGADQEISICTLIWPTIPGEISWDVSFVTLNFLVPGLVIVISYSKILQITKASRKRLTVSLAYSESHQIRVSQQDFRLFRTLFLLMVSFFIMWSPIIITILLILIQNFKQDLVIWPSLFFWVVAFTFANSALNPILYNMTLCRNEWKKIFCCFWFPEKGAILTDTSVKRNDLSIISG
Experiment: Intracellular Ca2+ assay (FLIPR Calcium 4, Flexstation) in human GPR120 stable cell line
Assay type: cell-based
Conditions: for concentration at which activity reached a maximum: typical value, reference compound; for % Activity (Ex. 25 Reference Compound): % activity at 2.5 μM compared to the maximal activity of the compound of Example 25 at 2.5 μM, HEK293 cells co-expressing Gqi5; for EC50: human GPR120 stably expressing cells, eight concentrations from 0.00001 to 20 μM
Experimental: Human GPR120 stable cell line was purchased from Multispan Inc (26219 Eden Landing Road, Hayward, Calif. 94545). This GPR120 cell line was generated in HEK293 cells co-expressing Gqi5. In this cell line, the Flag epitope tag (DYKDDDDK) was fused to the amino terminus of human GPR120 protein.
The concentration of intracellular Ca^2+ was measured as described below. Human GPR120 cells were plated in 96 well plates (Poly-D-Lysine coated black/clear Plate, Greiner Bio-One) at 70,000 cells per well and cultured overnight in conditions of 37° C. and 5% CO2. A Ca^2+ assay dye stock solution was prepared by adding 10 mL of assay buffer (HBSS/20 mM HEPES, pH 7.4) to FLIPR Calcium 4 Assay Bulk Kit (Molecular Devices). The 10 mL of Ca^2+ assay dye solution was prepared by further diluting 0.5 mL of Ca^2+ assay dye stock solution with 10 mL of assay buffer. The medium of the cells was removed and immediately 100 μL of the Ca^2+ assay dye solution was dispensed into each well followed by incubation at 37° C. and 5% CO2 for 50 minutes to incorporate the Ca^2+ dye into the cells. The cell plate was then placed in the Flexstation (Molecular Devices) for 20 minutes at 37° C. Compounds were dissolved in 100% DMSO and diluted to desired concentrations with assay buffer and placed in the Flexstation simultaneously with the cell plate for 20 minute incubation at 37° C. prior to reading. Fluorescence intensity was measured immediately following compound addition (25 μL/well) on the Flexstation at an excitation wavelength of 485 nm and an emission wavelength of 525 with 515 nm auto cutoff. The resulting increase in fluorescence intensities corresponds to increases in intracellular Ca^2+ levels.
Compounds were dissolved in 100% DMSO to a concentration of 20 mM to provide stock solutions. To determine activity against human GPR120, compounds were added with human GPR120 stably expressing cells (described above), at eight desired concentrations ranging from 0.00001 to 20 μM, in 96 well plates and fluorescence intensities were measured for 90 seconds with 2-second intervals. An EC50 value (concentration of the GPR120 agonist where 50% of the agonist's maximal activity is observed) was calculated using the changes (Max-Min) of fluorescence intensity.
To determine percent activity for a tested compound, the fluorescence intensity value obtained at a particular concentration were compared to the maximal fluorescence intensity value obtained for reference compound GW9508 (4-[[(3-phenoxyphenyl)methyl]amino]benzene propanoic acid; British Journal of Pharmacology 2006 148, 619-628) or the compound of Example 25. When GW9508 was used as the reference compound, the maximal activity of GW9508 at 6.7 μM was designated as 100% activity. When the compound of Example 25 was used as the reference compound, the maximal activity of the compound of Example 25 at 2.5 μM was designated as 100% activity. Typically, the GW9508 activity reached a maximum at a concentration of approximately 6.7 μM and typically the compound of Example 25 reached a maximum activity at approximately 2.5 μM.

Compound | concentration at which activity reached a maximum | % Activity (Ex. 25 Reference Compound) | EC50
4-[[(3-phenoxyphenyl)methyl]amino]benzene propanoic acid [GW9508, reference compound] | approximately 6.7 μM |  | 
CC1(C)Cc2cc(F)cc(COc3ccc(C4CC4C(=O)O)cc3)c2O1 (single isomer, unassigned) [Example 131A, 2-(4-((5-fluoro-2,2-dimethyl-2,3-dihydrobenzofuran-7-yl)methoxy)phenyl)cyclopropanecarboxylic acid] |  | 103.75% | 
CC1(C)Cc2cc(F)cc(COc3ccc(C4CC4C(=O)O)cc3)c2O1 (single isomer, unassigned) [Example 131B, 2-(4-((5-fluoro-2,2-dimethyl-2,3-dihydrobenzofuran-7-yl)methoxy)phenyl)cyclopropanecarboxylic acid] |  | 105.8% | 
CC1(C)Cc2cc(F)cc(COc3c(F)cc(CC4CC4C(=O)O)cc3F)c2O1 (single isomer, unassigned) [Example 184A, 2-(3,5-difluoro-4-((5-fluoro-2,2-dimethyl-2,3-dihydrobenzofuran-7-yl)methoxy)benzyl)cyclopropanecarboxylic acid] |  | 95.58% | 
CC1(C)Cc2cc(F)cc(COc3c(F)cc(CC4CC4C(=O)O)cc3F)c2O1 (single isomer, unassigned) [Example 184B, 2-(3,5-difluoro-4-((5-fluoro-2,2-dimethyl-2,3-dihydrobenzofuran-7-yl)methoxy)benzyl)cyclopropanecarboxylic acid] |  | 130.66% | 
CC1(C)Cc2cccc(COc3c(F)cc(CCC(=O)O)cc3F)c2O1 [Example 25, 3-(4-((2,2-dimethyl-2,3-dihydrobenzofuran-7-yl)methoxy)-3,5-difluorophenyl)propanoic acid] | approximately 2.5 μM |  | 
CC(Cc1ccc(OCc2ccc(F)c3c2OC(C)(C)C3)cc1)C(=O)O (centres unmarked) [Example 30, 3-(4-((4-fluoro-2,2-dimethyl-2,3-dihydrobenzofuran-7-yl)methoxy)phenyl)-2-methylpropanoic acid] |  |  | 1 to 10 µM
CC1(C)Cc2c(C(F)(F)F)ccc(COc3c(F)cc(C4CC4C(=O)O)cc3F)c2O1 (centres unmarked) [Example 31, 2-(4-((2,2-dimethyl-4-(trifluoromethyl)-2,3-dihydrobenzofuran-7-yl)methoxy)-3,5-difluorophenyl)cyclopropanecarboxylic acid] |  |  | 1 to 10 µM
CC(Cc1cc(F)c(OCc2ccc(C(F)(F)F)c3c2OC(C)(C)C3)c(F)c1)C(=O)O (centres unmarked) [Example 32, 3-(4-((2,2-dimethyl-4-(trifluoromethyl)-2,3-dihydrobenzofuran-7-yl)methoxy)-3,5-difluorophenyl)-2-methylpropanoic acid] |  |  | 1 to 10 µM
CC(Cc1ccc(OCc2ccc(C(F)(F)F)c3c2OC(C)(C)C3)c(F)c1)C(=O)O (centres unmarked) [Example 33, 3-(4-((2,2-dimethyl-4-(trifluoromethyl)-2,3-dihydrobenzofuran-7-yl)methoxy)-3-fluorophenyl)-2-methylpropanoic acid] |  |  | 1 to 10 µM
CC1(C)Cc2cc(Cl)cc(COc3c(F)cc(C4CC4CC(=O)O)cc3F)c2O1 (centres unmarked) [Example 41, 2-(2-(4-((5-chloro-2,2-dimethyl-2,3-dihydrobenzofuran-7-yl)methoxy)-3,5-difluorophenyl)cyclopropyl)acetic acid] |  | 116.46% | 
CC(Cc1cc(F)c(OCc2c(F)c(F)cc3c2OC(C)(C)C3)c(F)c1)C(=O)O (centres unmarked) [Example 42, 3-(4-((5,6-difluoro-2,2-dimethyl-2,3-dihydrobenzofuran-7-yl)methoxy)-3,5-difluorophenyl)-2-methylpropanoic acid] |  | 140.94% | 
CC(Cc1ccc(COc2cccc3c2OC(C)(C)C3)c(F)c1)C(=O)O (centres unmarked) [Example 44, 3-(4-(((2,2-dimethyl-2,3-dihydrobenzofuran-7-yl)oxy)methyl)-3-fluorophenyl)-2-methylpropanoic acid] |  | 157.14% | 
CC(Cc1ccc(OCc2cc(F)cc3c2OCOC3)cc1)C(=O)O (centres unmarked) [Example 45, 3-(4-((6-fluoro-4H-benzo[d][1,3]dioxin-8-yl)methoxy)phenyl)-2-methylpropanoic acid] |  | 79.58% | 
Cc1cc(OCc2cc(F)cc3c2OC(C)(C)C3)ccc1CCC(=O)O [Example 46, 3-(4-((5-fluoro-2,2-dimethyl-2,3-dihydrobenzofuran-7-yl)methoxy)-2-methylphenyl)propanoic acid] |  | 113.55% | 1 to 10 µM
CC1(C)Cc2cc(F)cc(COc3ccc(CCC(=O)O)c(Cl)c3)c2O1 [Example 47, 3-(2-chloro-4-((5-fluoro-2,2-dimethyl-2,3-dihydrobenzofuran-7-yl)methoxy)phenyl)propanoic acid] |  | 111.18% | 1 to 10 µM
CC1(C)Cc2cc(F)cc(COc3ccc(CCC(=O)O)c(F)c3)c2O1 [Example 48, 3-(2-fluoro-4-((5-fluoro-2,2-dimethyl-2,3-dihydrobenzofuran-7-yl)methoxy)phenyl)propanoic acid] |  |  | 1 to 10 µM
CC1(C)Cc2cc(F)cc(COc3cc(F)c(CCC(=O)O)c(F)c3)c2O1 [Example 49, 3-(2,6-difluoro-4-((5-fluoro-2,2-dimethyl-2,3-dihydrobenzofuran-7-yl)methoxy)phenyl)propanoic acid] |  |  | 1 to 10 µM
COc1cc(OCc2cc(F)cc3c2OC(C)(C)C3)ccc1CCC(=O)O [Example 50, 3-(4-((5-fluoro-2,2-dimethyl-2,3-dihydrobenzofuran-7-yl)methoxy)-2-methoxyphenyl)propanoic acid] |  | 129.78% | 1 to 10 µM
Cc1cc(OCc2cc(Cl)cc3c2OC(C)(C)C3)ccc1CCC(=O)O [Example 51, 3-(4-((5-chloro-2,2-dimethyl-2,3-dihydrobenzofuran-7-yl)methoxy)-2-methylphenyl)propanoic acid] |  |  | 1 to 10 µM
CC1(C)Cc2cc(Cl)cc(COc3ccc(CCC(=O)O)c(Cl)c3)c2O1 [Example 52, 3-(2-chloro-4-((5-chloro-2,2-dimethyl-2,3-dihydrobenzofuran-7-yl)methoxy)phenyl)-propanoic acid] |  |  | 1 to 10 µM
CC1(C)Cc2cc(Cl)cc(COc3ccc(CCC(=O)O)c(F)c3)c2O1 [Example 53, 3-(4-((5-chloro-2,2-dimethyl-2,3-dihydrobenzofuran-7-yl)methoxy)-2-fluorophenyl)-propanoic acid] |  | 143.19% | 1 to 10 µM
CC1(C)Cc2cc(Cl)cc(COc3cc(F)c(CCC(=O)O)c(F)c3)c2O1 [Example 54, 3-(4-((5-chloro-2,2-dimethyl-2,3-dihydrobenzofuran-7-yl)methoxy)-2,6-difluorophenyl)propanoic acid] |  | 138.97% | 1 to 10 µM
COc1cc(OCc2cc(Cl)cc3c2OC(C)(C)C3)ccc1CCC(=O)O [Example 55, 3-(4-((5-chloro-2,2-dimethyl-2,3-dihydrobenzofuran-7-yl)methoxy)-2-methoxyphenyl)propanoic acid] |  |  | 1 to 10 µM
